These results are taken from patent US20240124520A1, “N-ACYLATED HISTIDINE DIPEPTIDES AS ANTICANCER AGENTS” (THE BOARD OF TRUSTEES OF THE LELAND STANFORD JUNIOR …, priority 2019, published 2024).

Non-standard residues stand in square brackets, D forms with d. Residues, ends and D or L forms follow the SMILES beside them. *: point of attachment. Palmitoyl = CCCCCCCCCCCCCCCC(=O)*

Experiment [1] relates to 4T1 murine breast cancer cell line-derived mammary tumors, metastasis to the lungs. The experiment is described as follows: 4T1 mouse breast cancer lung metastasis study (clonogenic assay). It is filed as in vivo. As to conditions: Balb/c mice. The method, then: FIG. 17: 4T1 Mouse Breast Cancer Lung Metastasis Study with MBC0179. Compound MBC0179 (in 7% w/v Cremophore EL/10% v/v ethanol/[…] vehicle) or vehicle only was administered intravenously to three groups of six Balb/c mice (8 week old) carrying 4T1 murine breast cancer cell line-derived mammary tumors, one week post-implantation. After twice weekly dosing for four weeks with vehicle (blue bar), 10 mg/kg (red bar) or 15 mg/kg (green bar) MBC0179, the mice were humanely euthanized according to IACUC guidelines and lungs excised for 4T1 colonogenic assay in order to provide a measure of 4T1 metastasis to the lungs. The colony counts were plotted, averaged and standard error calculated (error bars). […] Additonally, the percentage reduction in lung-derived 4T1 colonies between the vehicle and 15 mg/kg MBC0179 treatment group was calculated based on the average colony counts for each group, normalizing to the vehicle group, indicated on chart.
The Cell Titer Blue reagent (available from Promega, Inc.) is a buffered solution containing resazurin, a compound that is converted to resorufin, a detectable fluorescent product, by metabolically active cells. […] Metastases to the lungs may be conveniently quantified by a well-established clonogenic assay. […]

Experiment [2] deals with MDA-MB-468 triple-negative human breast cancer cells. The experiment in a line: Cell Titer Blue in vitro cell viability assay, MDA-MB-468. The class given is cell-based. As to conditions: 72 h, MDA-MB-468 (DMEM), 3 days at 37° C. The method, then: (§1) FIG. 9: Dose Response curve for MBC0179 with MDA-MB-468 cells. Compound MBC0179 was incubated with MDA-MB-468 triple-negative human breast cancer cells at the indicated concentrations for 3 days at 37° C. prior to Cell Titer Blue fluorescence-based cell viability assay. Normalized cell viability data, expressed as a percentage, are averaged from three biological replicates and standard error represented by error bars for each averaged data point (empty squares). The compound concentrations are represented on log scale on the x-axis in μM units. Data were analyzed using free software called DrFit, as described in Nature Scientific Reports, Article number: 14701, (2015). […]
(§2) The Cell Titer Blue reagent (available from Promega, Inc.) is a buffered solution containing resazurin, a compound that is converted to resorufin, a detectable fluorescent product, by metabolically active cells. The fluorescence intensity of resorufin product therefore serves as a proportional measure of the number of viable cells, permitting changes in cell viability within cancer or other cell lines to be monitored in response to the addition of cytotoxic or cytostatic agents. […] Metastases to the lungs may be conveniently quantified by a well-established clonogenic assay. […]
On the technique in general: Alamar Blue is a resazurin reagent that responds to reducing activity.

The test system of experiment [3] is ZR-75-30 human breast cancer cells. The experiment in a line: Cell Titer Blue in vitro cell viability assay, ZR-75-30. The class given is cell-based. As to conditions: 72 h, ZR-75-30 (DMEM), 3 days at 37° C. The method, then:
as §1, with “10:” for “9:”, “ZR-75-30” for “MDA-MB-468”, “ZR-75-30” for “MDA-MB-468 triple-negative”
as §2

For orientation: IC50 means the concentration that gives 50% inhibition. With `CCCCCCCCCCCCCCCC(=O)N[C@H](Cc1c[nH]cn1)C(=O)N[C@@H](C(=O)OCC)C(C)C` [Compound 5, N-[N-(1-oxohexadecyl)-D-histidyl]-D-valine ethyl ester] (Palmitoyl-[dH]-[dV]-OEt), the “lung metastases (average 4T1 colony counts)” value in experiment [1] (10 mg/kg and 15 mg/kg intravenous twice weekly vs vehicle) is “dose-dependent reduction in lung metastases”. Besides, the “percent reduction in lung metastases” value in experiment [1] (15 mg/kg intravenous twice weekly for four weeks vs vehicle, lung-derived 4T1 colonies, p=0.03, two-tailed t-test) is 74.4%. For the same compound, the half-inhibitory concentration (IC50) came out at 15.7 µM in experiment [2] and 9.7 µM in experiment [3].
